Patent US12109327B2, “Scaffolds from self-assembling tetrapeptides support 3D spreading, osteogenic differentiation and angiogenesis of mesenchymal stem cells” (KING ABDULLAH UNIVERSITY OF SCIENCE AND TECHNOLOGY, priority 2020, dated 2024)
Non-standard residues stand in square brackets, D forms with d. Cha = N[C@@H](CC1CCCCC1)C(=O)O

Key:
BM-MSCs [1] = assay: Quantitative RT-PCR of osteogenic genes; assay type: cell-based, human
Method: Real-time polymerase chain reaction (PCR) values of the BM-MSC gene expressions of the bone morphogenetic protein (BMP-2) (FIG. 37), bone sialoprotein 2 (IBSP) (FIG. 35), osteopontin (OPN) (FIG. 38), osterix (OSX) (FIG. 39), and RUNX2 (FIG. 36) are evaluated after 30 days of culture. […] In FIGS. 35-39, * mens p<0.05 and ** means p<0.001, indicating statistical significance.
The BM-MSCs were cultured on different scaffolds with an osteogenic medium for 4 weeks. Total RNA was extracted using the TRIzol™ reagent. RNA concentration and purity were measured using a NanoDrop® 8000 spectrophotometer (Thermo Fisher®). Complementary DNA (cDNA) was synthesized using the ImProm-II Reverse Transcription System. Primer sequences were taken from previously published studies and are summarized in below. Relative quantification was performed using the comparative CT (2-ΔΔCT) and normalized against glyceraldehyde 3-phosphate dehydrogenase (GAPDH), which was used as a housekeeping gene to calculate the fold change in gene expression. BM-MSCs on a 2D culture using basal media were used as controls.

MSCs = assay: SEM of cell-matrix interaction; assay type: cell-based, human; settings: after 14 days of culture
Method: Scale bars are 5 and 10 μm, in the left and right panels respectively.
SEM was also used to determine the cell-matrix interaction. First, the cells encapsulated in hydrogels were fixed in 2.5% glutaraldehyde for overnight (4° C.) and then washed using PBS. The samples were subsequently incubated in 1% osmium tetroxide for one hour and washed with water. Afterwards, the dehydration was done by immersing them in increasing concentrations of ethanol: 30, 50, 70, 90 and 100%, 15 min each step. Then, the samples were processed in critical point dryer. The dried samples were then mounted and coated with 5 nm Ir thickness.

[2] = Oscillatory rheological test of peptide hydrogel stiffness (storage modulus G′); assay type: physicochemical; settings: for Storage modulus: 1 rad/s, 0.1% strain
Method: Therefore, in one embodiment, the mechanical stiffness of each peptide hydrogel is assessed by the storage modulus (G′) at different concentrations.
The oscillatory rheological test was performed to determine the mechanical properties of the peptide hydrogels. The peptide hydrogels were measured on a TA Ares G2 rheometer with an 8 mm parallel-plate geometry and a 1.5 mm gap distance at a temperature of 22° C. All of the hydrogels were made inside a Sigmacote®-coated glass ring with 9 mm inner diameter 19 h prior to measurement. Six replicates with a volume of 150 μL were prepared for each sample. […]

[3] = Vial inversion test: gelation time and critical gelation concentration; assay type: physicochemical; settings: for critical gelation concentration (CGC): aqueous solution, 1× PBS
Method: In one embodiment, an instant hydrogel formation can be observed when PBS buffer is added to the peptide solution. In one embodiment, the gelation time is determined using a vial inversion test performed at different peptide concentrations in 1×PBS to meet physiological conditions. FIG. 13 compares the gelation time of IVFK and IVZK at different concentration.
The lyophilized peptide powders were dissolved in Milli-Q® water by vortexing into a clear solution at room temperature. Then, 10× phosphate-buffered saline (PBS) was added to the aqueous peptide solution at a final volume ratio of peptide solution to 10×PBS of 9:1. The vial inversion test was performed with different peptide concentrations to find the critical gelation concentration (CGC). To study the spatial structure of the peptide solution during the assembly process, two-dimensional (2D) NMR was performed using Bruker Avance III 600 MHz. Furthermore, scanning electron microscopy (SEM) was performed to visualize the morphology of the self-assembled nanofibers.

HUVECs = assay: In vitro angiogenesis study; assay type: cell-based, human
Method: When bone deficiency occurs, it often causes blood vessel damage. Blood vessels provide the necessary components to repair the region of bone defects by transferring oxygen and nutrients.^107, 108 In one embodiment, the capability of IVFK and IVZK hydrogels to support angiogenesis is also evaluated using HUVECs and compared with collagen, which is an essential component of the ECM and is known to support the angiogenesis of endothelial cells,^23 because the capillary system is a crucial component in bone regeneration. Viability of HUVECs in IVZK scaffold after culturing for 24 h can be observed the bright field image as shown in FIG. 45 and confocal images as shown in FIG. 46. In FIG. 46, live cells are stained in green by Calcein-AM, while dead cells are stained red by Ethidium homodimer. In FIGS. 45 and 46, the scale bar is 100 μm. Furthermore, the angiogenesis ability of IVZK scaffold is also measured by the vessels junctions (FIG. 48), number of nodes (FIG. 49) and, in total vessels length (FIG. 47) for 5 different microscopic pictures. […] In FIG. 50, the scale bar is 100 μm.
Peptide hydrogel or collagen was placed in a 24-well plate, and human umbilical vein endothelial cells (HUVECs) at 40,000 cells/well were added on top of the peptide gel or collagen. Cells were cultured in endothelial growth media for 24 h. Cells were then investigated using an inverted microscope, and images were analyzed by ImageJ using the Angiogenesis Analyzer.

BM-MSCs [4] = assay: Alamar Blue cell viability assay; assay type: cell-based, human; settings: compared to controls (2D and Matrigel)
Method: In one embodiment, the hydrogels are screened for biocompatibility, cell attachment, and proliferation. Different concentrations of the peptides are tested for their biocompatibility of the cells within the constructs. […] Control is the cells incubated for 48 h without peptides.
The hBM-MSCs were cultured in T75 flasks and incubated in a CO2 incubator maintained at 37° ° C. with 5% CO2. Culture media were replaced every 2-3 days until the cells reached 80% confluency. Confluent cells were trypsinized and subcultured, and cells at passage 3-6 were used for the study. For the 3D culture, different peptides were sterilized by exposure to UV light for 30 min. Then, 200 μL of 3D constructs in the 48-well plate was formed by mixing the peptide solution (IVZK=3 mg/mL (5.42 mM); IVFK=4 mg/mL (7.31 mM)) with 40,000 cells suspended in 2×PBS. Culture plates were incubated for 5 min at 37° C., and the complete medium was added carefully to the culture plates. […] The morphology, cell proliferation, and mineralization of the cells in each scaffold were analyzed and compared. […]
A volume of 10 μL of Alamar blue stock solution was added to 100 μL of media in each well. […] The fluorescence was measured at an excitation wavelength of 530 nm, and the emission at 590 nm. The viability percentage was calculated against the control (2D).

BM-MSCs [5] = assay: Alizarin red staining of mineralization; assay type: cell-based, human
Excerpt: Alizarin red staining (ARS) is used to detect calcium deposition. The BM-MSCs cultured in the different scaffolds in the osteogenic medium are stained by Alizarin red to confirm the mineralization process during osteogenic differentiation (FIGS. 4b and S11b). […] The scale bar in FIGS. 31 and 32 is 100 μm. […] This indicates the presence of calcium deposits.
After 14 days of culture, the media were removed and the cells were washed three times with PBS, fixed with 4% paraformaldehyde, and incubated for 15 min at room temperature.
After 14 days of culture, the media was removed and then, the cells were washed three times with PBS and then fixed with 4% paraformaldehyde and the cells incubated for 15 minutes at room temperature. Then, the cells were washed three times with Milli-Q® water. Then the Milli-Q® water was removed and 1 mL of 40 mM Alizarin Red Staining (pH=4.2) was added to each well. The scaffolds were incubated at room temperature for 20-30 min with gentle shaking. […] For the quantification of Alizarin Red Staining, 100 μL of 10% acetic acid was added to each well in a 48-well plate and incubated at room temperature for 30 minutes with gentle shaking. […] Finally, 50 μL of each tube was transferred to a 96-well plate, and the absorbance at 405 nm was read with a plate reader (PHERAstar® FS, Germany)

BM-MSCs [6] = assay: Alkaline phosphatase (ALP) assay; assay type: cell-based, human
Excerpt: (§1) In one embodiment, the BM-MSCs differentiate to the osteogenic lineage. The expression of osteocalcin is stained and imaged after 3 weeks of culture in osteogenic medium using confocal microscopy, as shown in FIG. 33. FIG. 33 is confocal images showing the expression of osteocalcin stained in green, and the cell nuclei stained in blue using DAPI. The scale bar in FIG. 33 is 100 μm. […] Additionally, the levels of alkaline phosphatase (ALP), an early osteogenic marker expressed by osteoblast cells, are also measured to confirm the commitment of BM-MSCs toward the osteogenic lineage. […] Furthermore, the ALP activity increased with time during the initial 2 weeks as an indicator of osteogenic differentiation. In FIG. 34, * means p<0.05, indicating statistical significance.
Alkaline phosphatase (ALP) was measured after 1 and 2 weeks of culture using an alkaline phosphatase substrate kit. At the end of each culture time, the scaffolds were washed by PBS and cells were lysed using 1% Triton X-100. Then, 80 μL of the cell lysate mixture was added to 50 μL of the para-nitrophenylphosphate (pNPP) substrate (5 mM) and incubated at room temperature for 2 h. The reaction was inhibited by the addition of a stop solution, and the absorbance was measured at 405 nm using a multimode plate reader (PHERAstar® FS, Germany).

BM-MSCs [7] = assay: Osteocalcin immunostaining, confocal microscopy; assay type: cell-based, human
Excerpt: as §1
Immunostaining was performed after each time point of culture. Briefly, cells were fixed by 4% paraformaldehyde solution for 30 min and incubated in a cold cytoskeleton buffer (3 mM MgCl2, 300 mM sucrose, and 0.5% Triton X-100 in PBS solution) for 5 min to permeabilize the membranes of the cells. The permeabilized cells were incubated in a blocking buffer solution, 5% fetal bovine serum (FBS), 0.1% Tween-20, and 0.02% […] in PBS for 30 min. […]

[8] = 24 h, versus collagen positive control
[9] = hydrogel around 20 kPa (4 mg/mL) versus 50 kPa (8 mg/mL)

Ac-Ile-Val-Cha-Lys-NH2 (Ac-IV[Cha]K-NH2; not fully specified; printed as Ac-Ile-Val-Cha-Lys-NH2) [IVZK, nonaromatic self-assembling tetrapeptide (Z = cyclohexylalanine) forming hydrogel scaffold]
OPN gene expression (BM-MSCs [1]; after 30 days of culture): downregulated
cell morphology by SEM (MSCs): elongated spindlelike morphology
G′ value, IVZK versus IVFK ([2]; at the same concentration): higher G′ value compared to IVFK
Storage modulus ([2]; peptide hydrogel 2 mg/mL): 10.00 ± 0.12 kPa
Storage modulus ([2]; peptide hydrogel 3 mg/mL): 17.21 ± 1.38 kPa
Storage modulus ([2]; peptide hydrogel 4 mg/mL): 29.77 ± 1.19 kPa
Storage modulus ([2]; peptide hydrogel 6 mg/mL): 43.03 ± 2.81 kPa
Storage modulus ([2]; peptide hydrogel 8 mg/mL): 75.21 ± 4.08 kPa
critical gelation concentration (CGC) [3]: 2 mg/mL
gelation time ([3]; different peptide concentrations in 1×PBS, IVZK versus IVFK): less time to form the hydrogel, compared to IVFK

Ac-Ile-Val-Phe-Lys-NH2 (Ac-IVFK-NH2) [aromatic self-assembling tetrapeptide forming hydrogel scaffold]
junctions (HUVECs; [8]): no significant difference
nodes (HUVECs; [8]): no significant difference
total length of tubes (HUVECs; [8]): no significant difference
network formation of HUVECs (HUVECs; after 24 h of culture): forms dense network structures
cell growth (Alamar Blue) (BM-MSCs [4]): significant increase in cell growth compared to both controls
expression of osteogenic genes OPN and BMP-2 (BM-MSCs [1]; 20 kPa hydrogel versus 50 kPa scaffold): able to support cell differentiation much better than the 50 kPa scaffold
IBSP gene expression level (BM-MSCs [1]; after 30 days of culture): highest
OPN gene expression (BM-MSCs [1]; after 30 days of culture): upregulated
OSX expression level (BM-MSCs [1]; after 30 days of culture): low
Runx2 gene expression (BM-MSCs [1]; after 30 days of culture): higher
calcium content (Alizarin red-S quantification) (BM-MSCs [5]; [9]): significantly higher calcium content than that at 50 kPa
Alizarin red-S (ARS) staining of mineral deposits (BM-MSCs [5]; osteogenic medium, compared to the other scaffolds): most intense ARS staining
ALP activity (BM-MSCs [6]; after 7 days in osteogenic medium, versus collagen, p<0.05): Significantly higher ALP activity
ALP release (BM-MSCs [6]; [9]): higher ALP release than that at 50 kPa
cell morphology by SEM (MSCs): elongated spindlelike morphology
stiffness ([2]; peptide concentration 4 mg/mL): around 20 kPa
stiffness ([2]; peptide concentration 8 mg/mL): ~50 kPa
Storage modulus ([2]; peptide hydrogel 2 mg/mL): 0.54 ± 0.06 kPa
Storage modulus ([2]; peptide hydrogel 3 mg/mL): 7.03 ± 0.19 kPa
Storage modulus ([2]; peptide hydrogel 4 mg/mL): 23.40 ± 0.88 kPa
Storage modulus ([2]; peptide hydrogel 6 mg/mL): 35.79 ± 0.95 kPa
Storage modulus ([2]; peptide hydrogel 8 mg/mL): 51.79 ± 4.73 kPa
osteocalcin expression (BM-MSCs [7]; 3 weeks in osteogenic medium): comparable to those cultured in the collagen control group
osteocalcin expression (BM-MSCs [7]; 20 kPa scaffold compared to the others): more intense
critical gelation concentration (CGC) [3]: 2 mg/mL
